# Key:
# Test in all cases: drug sensitivity score (DSS) from 5-dose viability curve (DSS (area-based score, 0 = no response)); higher = more sensitive (stronger viability inhibition); extreme values may be limits of the assay
# [1] = tested on: MDCK p60AmotL2-inducible + doxycycline (p60AmotL2 expressing); conditions: doxycycline: 10 ng/mL; 72 h
# How it was run: (§1)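 Two MDCK lines, parental and doxycycline-inducible, received doxycycline at 10 ng/mL in the medium before being plated at 2000 cells/well onto a pre-spotted 384-well oncology library of 528 drugs at five doses (1-10,000 nM). Incubation lasted 72 h at 37 °C. Viability was read by CellTiter-Glo luminescence, scaled per plate between vehicle and positive controls, and converted to drug sensitivity scores through Breeze curve fitting.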
# [2] = tested on: MDCK wild-type + doxycycline; conditions: doxycycline: 10 ng/mL; 72 h
# How it was run: as §1
# [3] = tested on: MDCK wild-type - doxycycline; conditions: doxycycline: none; 72 h
# How it was run: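 Drug sensitivity scores came from Breeze pipeline dose-response fits of CellTiter-Glo luminescence, scaled per plate between vehicle and positive controls. The assay used parental MDCK cells without doxycycline at 2000 cells/well, exposed for 72 h to 528 oncology drugs at five doses (1-10,000 nM).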
Compound,drug sensitivity score [1],drug sensitivity score [2],drug sensitivity score [3]
CO[C@@H](C(=O)N1Cc2[nH]nc(NC(=O)c3ccc(N4CCN(C)CC4)cc3)c2C1)c1ccccc1 [Danusertib],8.4,5.6,4.4
C=C(c1ccc(C(=O)O)cc1)c1cc2c(cc1C)C(C)(C)CCC2(C)C [Bexarotene],0,0,0.2
CC(=O)Nc1cccc(-n2c(=O)n(C3CC3)c(=O)c3c(Nc4ccc(I)cc4F)n(C)c(=O)c(C)c32)c1 [Trametinib],15.8,7.4,6.6
CC(C)(C)C[C@@H]1N[C@@H](C(=O)N[C@H]2CC[C@H](O)CC2)[C@H](c2cccc(Cl)c2F)[C@]12C(=O)Nc1cc(Cl)ccc12,7.2,4.7,2.9
CC[C@H](C)C(=O)O[C@H]1C[C@@H](C)C=C2C=C[C@H](C)[C@H](CC[C@@H]3C[C@@H](O)CC(=O)O3)[C@H]21 [Lovastatin],0,0,0
O=C(Nc1nc2cccc(-c3ccc(CN4CCS(=O)(=O)CC4)cc3)n2n1)C1CC1 [Filgotinib],0,0,0
COc1cc2c(NC3CCN(C(C)C)CC3)nc(C3CCCCC3)nc2cc1OCCCN1CCCC1 [UNC0638],5,5.3,5.2
O=C1CCC(N2C(=O)c3ccccc3C2=O)C(=O)N1 (centres undefined) [Thalidomide],0,0,0
NC(=S)N/N=C/c1ncccc1N [Triapine],3.9,3.6,4.7
Cn1cc(C2=C(c3cn(C4CCN(Cc5ccccn5)CC4)c4ccccc34)C(=O)NC2=O)c2ccccc21 [Enzastaurin],0,0,0
Cc1nc(=O)c2cc(CN(C)c3ccc(C(=O)N[C@@H](CCC(=O)O)C(=O)O)s3)ccc2[nH]1 [Raltitrexed],5,3.3,3
CC(C)C[C@H](NC(=O)CNC(=O)c1cc(Cl)ccc1Cl)B(O)O [Ixazomib],9.7,9.4,9.6
COC(=O)c1ccc([C@H]2c3[nH]c4ccccc4c3C[C@H](C(=O)OC)N2C(=O)CCl)cc1 [RSL3],0,0,0
COC(=O)C[C@](O)(CCCC(C)(C)O)C(=O)O[C@@H]1C(OC)=C[C@]23CCCN2CCc2cc4c(cc2[C@H]13)OCO4 [Omacetaxine],33.6,32.4,33.5
CCN1C(=O)CNc2ncc(-c3ccc(-c4nc[nH]n4)nc3C)nc21 [CC-115],9.4,7.8,8.9
C=CC[C@@H]1/C=C(\C)C[C@H](C)C[C@H](OC)[C@H]2O[C@@](O)(C(=O)C(=O)N3CCCC[C@H]3C(=O)O[C@H](/C(C)=C/[C@@H]3CC[C@@H](O)[C@H](OC)C3)[C@H](C)[C@@H](O)CC1=O)[C@H](C)C[C@@H]2OC [Tacrolimus],0,0,0
O=C(O)CNC(=O)c1c(O)c2ccccc2n(Cc2ccccc2)c1=O [IOX-2],0,0,0
CN(C)C(=O)c1cc2cnc(Nc3ccc(N4CCNCC4)cn3)nc2n1C1CCCC1 [Ribociclib],1.6,0.8,0
COc1cccc2c1C(=O)c1c(O)c3c(c(O)c1C2=O)C[C@@](O)(C(C)=O)C[C@@H]3O[C@H]1C[C@H](N)[C@H](O)[C@H](C)O1 [Daunorubicin],11.6,10.3,9.5
CO[C@H]1C[C@@H]2CC[C@@H](C)[C@@](O)(O2)C(=O)C(=O)N2CCCC[C@H]2C(=O)O[C@H]([C@H](C)C[C@@H]2CC[C@@H](O)[C@H](OC)C2)CC(=O)[C@H](C)/C=C(\C)[C@@H](O)[C@@H](OC)C(=O)[C@H](C)C[C@H](C)/C=C/C=C/C=C/1C [Sirolimus],7.6,2.3,1.9
COc1cc([C@@H]2c3cc4c(cc3[C@@H](O[C@@H]3O[C@@H]5CO[C@@H](c6cccs6)O[C@H]5[C@H](O)[C@H]3O)[C@H]3COC(=O)[C@H]23)OCO4)cc(OC)c1O [Teniposide],2.7,1.5,0.9
C[C@H]1Oc2cc(cnc2N)-c2c(nn(C)c2C#N)CN(C)C(=O)c2ccc(F)cc21,2.1,0,0.1

Compound,drug sensitivity score [1],drug sensitivity score [2],drug sensitivity score [3]
CNC(=O)c1ccccc1Nc1nc(Nc2ccc3c(c2OC)CCC[C@H](N2CCN(CCO)CC2)C3)ncc1Cl,8.8,6.2,6.8
NC(=O)/C(=C/n1cnc(-c2cc(C(F)(F)F)cc(C(F)(F)F)c2)n1)c1cncnc1 [Eltanexor],19.9,21.8,19.6
COc1cc2nccc(Oc3ccc(NC(=O)NC4CC4)c(Cl)c3)c2cc1C(N)=O [Lenvatinib],0,0,0
C=CC(=O)Nc1cccc(Nc2nc(Nc3ccc(OCCOC)cc3)ncc2F)c1 [Spebrutinib],0.8,0,0
CONC(=O)c1ccccc1Nc1cc(Nc2cc(C)nn2C(C)C)ncc1Cl,1.2,0,0
CN(CC(=O)N(Cc1ccc(C2CCCCC2)cc1)c1ccc(C(=O)O)cc1)S(=O)(=O)c1c(F)c(F)c(F)c(F)c1F [SH-4-54],3.7,3.9,5.1
Nc1ncn([C@@H]2O[C@H](CO)[C@@H](O)[C@H]2O)c(=O)n1 [Azacitidine],0.7,0.6,0.3
CC1=C(/C=C/C(C)=C/C=C/C(C)=C/C(=O)O)C(C)(C)CCC1 [Tretinoin],0,0,0.7
C[C@@H]1C[C@H]2[C@@H]3CCC4=CC(=O)C=C[C@]4(C)[C@@]3(F)[C@@H](O)C[C@]2(C)[C@@]1(O)C(=O)CO [Dexamethasone],0,0,0
CC1=C2C[C@H]3[C@@H](CC[C@@H]4C[C@H](NS(C)(=O)=O)CC[C@@]43C)[C@@H]2CC[C@@]2(C1)O[C@@H]1C[C@H](C)CN[C@H]1[C@H]2C [Saridegib],0.8,0,0
O=C(NOC[C@H](O)CO)c1ccc(F)c(F)c1Nc1ccc(I)cc1F,11.9,3.9,2.3
CCn1c(-c2nonc2N)nc2cnc(Oc3cccc(NC(=O)c4ccc(OCCN5CCOCC5)cc4)c3)cc21,4,2.6,0.8
CNC(=O)CN1CCC(Oc2cc3c(Nc4cccc(Cl)c4F)ncnc3cc2OC)CC1 [Sapitinib],12.9,4.5,1.2
C[C@H]1CNCCCN1S(=O)(=O)c1cccc2cncc(F)c12 [Ripasudil],0,0,0
O=C(O)CC[C@H]1CC[C@@](c2cc(F)ccc2F)(S(=O)(=O)c2ccc(Cl)cc2)CC1 [MK-0752],0,0,0
COc1cc([C@@H]2c3cc4c(cc3[C@@H](O[C@@H]3O[C@@H]5CO[C@@H](C)O[C@H]5[C@H](O)[C@H]3O)[C@H]3COC(=O)[C@H]23)OCO4)cc(OC)c1O [Etoposide],9.5,6.9,4.3
COc1cc(N2CCC(N3CCN(C)CC3)CC2)ccc1Nc1ncnc(Nc2ccccc2S(=O)(=O)C(C)C)n1 [ASP3026],9.5,6.5,6.3
O=C(Nc1cc(Cl)cc2c1[nH]c1cnccc12)c1cccnc1 [PS-1145],0,0,0
CC[C@@H]1[C@H](F)C(=O)N[C@@H]1COc1nccc2cc(C(N)=O)c(OC)cc12,0.2,0.8,0
CCS(=O)(=O)c1cccc(-c2cc(C(=O)NC3CCN(C)CC3)c(C)c3[nH]c4ncc(C)cc4c23)c1 [TAK-901],1.8,0.7,0
CNC(=O)c1cc(Oc2ccc(NC(=O)Nc3ccc(Cl)c(C(F)(F)F)c3)cc2)ccn1 [Sorafenib],0,0,0
